Data published in patent publication US11001829B2, “Functional screening with optimized functional CRISPR-Cas systems” (The Broad Institute, Inc., priority 2014, dated 2021).

Legend:
Factor VII = settings: LNP siRNA systems containing the lipid; cited from earlier work
MS2 RNA aptamer = settings: cited from earlier work
DNA = assay: indel formation by double nicking with sgRNA pairs; type: cell-based; settings: substitution of Cas9n in a given sgRNA pair
Excerpt: Aspects of the invention relate to the expression of the gene product being decreased or a template polynucleotide being further introduced into the DNA molecule encoding the gene product or an intervening sequence being excised precisely by allowing the two 5′ overhangs to reanneal and ligate or the activity or function of the gene product being altered or the expression of the gene product being increased. In an embodiment of the invention, the gene product is a protein. Only sgRNA pairs creating 5′ overhangs with less than 8 bp overlap between the guide sequences (offset greater than −8 bp) were able to mediate detectable indel formation. […] Nonetheless, a pair of sgRNAs that will generate a 5′ overhang with Cas9n should in principle generate the corresponding 3′ overhang instead, and double nicking. […] Accordingly, in some embodiments, a recombination template is also provided. A recombination template may be a component of another vector as described herein, contained in a separate vector, or provided as a separate polynucleotide. In some embodiments, a recombination template is designed to serve as a template in homologous recombination, such as within or near a target sequence nicked or cleaved by a CRISPR enzyme as a part of a CRISPR complex. […]

[1] = test system: A375 melanoma cell line (BRAF V600E); settings: cited from earlier work
CXCR4, CACNAC1A = assay: repression by non-coding Alu loops in the sgRNA with dCas9, HEK293FT, qPCR; type: cell-based, human; settings: in complex with dCas9
Procedure: The non-coding Alu RNA has previously been described as a transacting repressor interfering with RNA polymerase II in mammalian cells. In addition, a minimal loop required for repression has been identified (sciencedirect.com/science/article/pii/S1097276508000026). Applicants designed guides with different sites of incorporation of the truncated Alu loop (and in combination with PP7 loops). Sequences for these sgRNA backbones are listed below: […]
A total plasmid mass of 0.3 μg/well was transfected using 0.6 μL/well Lipofectamine 2000 (Life Technologies) according to the manufacturer's instructions. […] Relative RNA expression levels were quantified by reverse transcription and quantitative PCR (qPCR) using TaqMan qPCR probes (Life Technologies) and Fast Advanced Master Mix (Life Technologies). qPCR was carried out in 5 μL multiplexed reactions and 384-well format using the LightCycler 480 Instrument II. Data was analyzed by the ΔΔCt method: target Ct values (FAM dye) were normalized to GAPDH Ct values (VIC dye), and fold changes in target gene expression were determined by comparing to GFP-transfected experimental controls.

Neurog2 = Neurog2 upregulation in Neuro-2a cells, qRT-PCR; type: cell-based
Procedure: 120,000 cells were plated in each well of a 24-well plate 18-20 h before transfection. Cells were transfected with Lipofectamine transfection reagent (Life Technologies) according to the manufacturer's instructions.
RNA was extracted using the RNeasy kit (Qiagen) according to manufacturer's instructions and […] of RNA per sample was reverse-transcribed using qScript (Quanta Biosystems). Relative mRNA levels were measured by reverse transcription and quantitative PCR (qRT-PCR) using TaqMan probes specific for the targeted gene as well as GAPDH as an endogenous control (Life Technologies). ddCt analysis was used to obtain fold-changes relative to negative controls transfected with GFP only.
A minimal hairpin aptamer capable of binding to the bacteriophage coat protein MS2, which is known to be capable of binding MS2 through strong sequence- and structure-specific interactions in mammalian cells^18,19, to incorporate into tetraloop and stem-loop 2 (FIG. 27b) was chosen. Tests were performed to evaluate whether MS2-mediated recruitment of VP64 to the tetraloop and stem-loop 2 could mediate transcriptional up-regulation more efficiently than a dCas9-VP64 fusion alone. Aptamer-mediated recruitment of MS2-VP64 to either tetraloop (sgRNA 1.1) or stem-loop 2 (sgRNA 1.2) mediated 3- and 5-fold higher levels of Neurog2 up-regulation than a dCas9-VP64 fusion (sgRNA 1.0), respectively.

human ASCL1 = assay: ASCL1 activation in HEK293FT cells, qPCR; type: cell-based
Procedure: (§1) Human HEK293FT cells were maintained in high-glucose DMEM with GlutaMax and sodium pyruvate (Life Technologies) supplemented with 10% heat-inactivated characterized HyClone fetal bovine serum (Thermo Scientific) and 1% penicillin/streptomycin (Life Technologies). Cells were passaged daily at a ratio 1 to 2 or 1 to 2.5. For MS2/dCas9 activator experiments, 20,000 HEK293FT cells were plated in 100 μL of culture medium in poly-d-lysine coated 96-well plates (BD biosciences). […]
(§2) Total plasmid mass per well was 0.3 micrograms. […] Gene expression levels were quantified by using Taqman qPCR probes (Life technologies) and Fast Advanced Master Mix (Life Technologies). ASCL1 and MYOD1 expression levels were calculated relative to GAPDH expression level. Fold gene expression levels were determined by comparison to samples transfected with GFP plasmid only. […]
(§3) A total plasmid mass of 0.3 ug/well was transfected using 1.5 uL/well Lipofectamine 2000 (Life Technologies) according to the manufacturer's instructions. […] Relative RNA expression levels were quantified by reverse transcription and quantitative PCR (qPCR) using Taqman qPCR probes (Life technologies) and Fast Advanced Master Mix (Life Technologies). qPCR was carried out in 5 uL multiplexed reactions and 384-well format using the LightCycler 480 Instrument II. […]

human MYOD1 = assay: MYOD1 activation in HEK293FT cells, qPCR; type: cell-based
Procedure: as §1, §2, §3

Which “gene silencing potency, rank order” value (Factor VII) does the source give for “1,2-dilinoleyloxy-keto-N,N-dimethyl-3-aminopropane [DLinKDMA]” here?
Its value is “DLinKC2-DMA>DLinKDMA>DLinDMA>>DLinDAP”.

For CCCCC/C=C\C/C=C\CCCCCCCCC1(CCCCCCCC/C=C\C/C=C\CCCCC)OCC(CCN(C)C)O1 (centres unmarked) [DLinKC2-DMA, 1,2-dilinoleyl-4-(2-dimethylaminoethyl)-[1,3]-dioxolane], which “gene silencing potency, rank order” value (Factor VII) is on record?
Its value is “DLinKC2-DMA>DLinKDMA>DLinDMA>>DLinDAP”.

With “N55K mutant of the MS2 bacteriophage coat protein: MS2 variant, N55K mutant” as the molecule, how does the “binding affinity, in words” value (MS2 RNA aptamer) read?
The value was “higher binding affinity than wild type MS2”.

With CCCCC/C=C\C/C=C\CCCCCCCC(=O)OCC(CN(C)C)OC(=O)CCCCCCC/C=C\C/C=C\CCCCC (centres unmarked) [DLinDAP, 1,2-dilineoyl-3-dimethylammonium-propane] as the molecule, how does the “gene silencing potency, rank order” value (Factor VII) read?
The value was “DLinKC2-DMA>DLinKDMA>DLinDMA>>DLinDAP”.

For CCCCC/C=C\C/C=C\CCCCCCCCOCC(CN(C)C)OCCCCCCCC/C=C\C/C=C\CCCCC (centres unmarked) [DLinDMA, 1,2-dilinoleyloxy-3-N,N-dimethylaminopropane], which “gene silencing potency, rank order” value (Factor VII) is on record?
The value was “DLinKC2-DMA>DLinKDMA>DLinDMA>>DLinDAP”.

For “H840A: Cas9 with the H840A mutation in the HNH domain”, which “indel formation, in words” value (DNA) is on record?
Its value is “no indel formation is observed”.

For CCCS(=O)(=O)Nc1ccc(F)c(C(=O)c2c[nH]c3ncc(Cl)cc23)c1F [PLX4720], which “sensitivity of A375 cells, in words” value [1] is on record?
The value was “naturally sensitive”.

B1: minimal non-coding Alu-loops at the tetraloop and stem-loop 2: sgRNA backbone with truncated Alu loop at tetraloop and stem-loop 2 (nucleic acid)
guide: GTTTTAGAGCTAGAGGCAGGAGAATGGCGTGAACCCGGGAGGTGGCCGAGATCGCTCCAGCCTGGGTGACAGAGCGAGACTCTGTCTCTAGCAAGTTAAAATAAGGCTAGTCCGTTATCAACTTGAGGCAGGAGAATGGCGTGAACCCGGGAGGTGGCCGAGATCGCTCCAGCCTGGGTGACAGAGCGAGACTCTGTCTCAAGTGGCACCGAGTCGGTGCTTTTTTT
With B1 as the molecule, how does the “repression of target gene expression, in words” value (CXCR4, CACNAC1A) read?
The value was “able to repress target gene expression in complex with dCas9”.

B2: sgRNA 2.0: sgRNA scaffold in which the tetraloop and stem-loop 2 sequences have been replaced by an MS2 binding loop (nucleic acid)
guide: NNNNNNNNNNNNNNNNNNNNGUUUUAGAGCUAGGCCAACATGAGGATCACCCATGTCTGCAGGGCCUAGCAAGUUAAAAUAAGGCUA
modifications: /note=“Description of Combined DNA/RNA Molecule Synthetic oligonucleotide”; modified_base (1)..(20) a, c, t, g, unknown or other
With B2 as the molecule, how does the “levels of Neurog2 up-regulation relative to a dCas9-VP64 fusion (sgRNA 1.0)” value (Neurog2; aptamer-mediated recruitment of MS2-VP64, with dCas9) read?
Its value is 12 fold.

And the “target gene upregulation (Neurog2), in words” value (Neurog2; with dCas9-vp64 and MS2-vp64, compared with regular guide and dCas9-vp64)?
Its value is “much higher target gene upregulation compared to the previous design”.

And the “ASCL1 activation, comparison in words” value (human ASCL1)?
Its value is “more potent than either of the 3′ MS2 sgRNA architectures”.

What about the “levels of transcription activation relative to sgRNA+2×MS2” value (human ASCL1; ASCL1) of the same molecule?
Its value is 14 fold.

What about the “MYOD1 activation, comparison in words” value (human MYOD1) of the same molecule?
The value was “more potent than either of the 3′ MS2 sgRNA architectures”.

What about the “levels of transcription activation relative to sgRNA+2×MS2” value (human MYOD1; MYOD1) of the same molecule?
The value was 8.5 fold.
